According to PubChem BioAssay AID1963862 (Molecular Pharmacology Branch, DTP, NCI, 2024):
pIC50: −log10 of the molar value.

Tested on: KRAS patient-derived spheroids with HUVEC/MSC, viability
Assay: Anticancer human tumor 941728-121-R-J1-PDC patient-derived lung adenocarcinoma cell line growth inhibition [KRAS2]
Settings: for pIC50: curve of first compound; for viability, T/C: stronger effect = lower value
Procedure, shortened: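 Combination screen of spheroid viability in tumor-cell co-cultures with endothelial (HUVEC) and mesenchymal stem cell stroma. Each agent was tested in half-log dilutions, topping at clinical Cmax or at 10 microM without a known Cmax.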

[1] = second compound 0.1 µM, first compound 0.0316 µM
[2] = second compound 0.1 µM, first compound 0.1 µM
[3] = second compound 0.1 µM, first compound 0.316 µM
[4] = second compound 0.1 µM, first compound 1 µM
[5] = second compound 0.1 µM, first compound 3.16 µM
[6] = second compound 0.316 µM, first compound 0.0316 µM
[7] = second compound 0.316 µM, first compound 0.1 µM
[8] = second compound 0.316 µM, first compound 0.316 µM
[9] = second compound 0.316 µM, first compound 1 µM
[10] = second compound 0.316 µM, first compound 3.16 µM
[11] = second compound 1 µM, first compound 0.0316 µM
[12] = second compound 1 µM, first compound 0.1 µM
[13] = second compound 1 µM, first compound 0.316 µM
[14] = second compound 1 µM, first compound 1 µM
[15] = second compound 1 µM, first compound 3.16 µM
[16] = second compound 3.16 µM, first compound 0.0316 µM
[17] = second compound 3.16 µM, first compound 0.1 µM
[18] = second compound 3.16 µM, first compound 0.316 µM
[19] = second compound 3.16 µM, first compound 1 µM
[20] = second compound 3.16 µM, first compound 3.16 µM
[21] = second compound 10 µM, first compound 0.0316 µM
[22] = second compound 10 µM, first compound 0.1 µM
[23] = second compound 10 µM, first compound 0.316 µM
[24] = second compound 10 µM, first compound 1 µM
[25] = second compound 10 µM, first compound 3.16 µM
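Also: spheroids exposed to agents for seven days before readout.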

Row | SMILES | pIC50 (second compound 0.1 µM) | pIC50 (second compound 0.316 µM) | pIC50 (second compound 1 µM) | pIC50 (second compound 3.16 µM) | pIC50 (second compound 10 µM) | viability, T/C [1] [%] | viability, T/C [2] [%] | viability, T/C [3] [%] | viability, T/C [4] [%] | viability, T/C [5] [%] | viability, T/C [6] [%] | viability, T/C [7] [%] | viability, T/C [8] [%] | viability, T/C [9] [%] | viability, T/C [10] [%] | viability, T/C [11] [%] | viability, T/C [12] [%] | viability, T/C [13] [%] | viability, T/C [14] [%] | viability, T/C [15] [%] | also measured
1 | CC1COCCN1c1cc(-c2ccnn2C)c2ccnc(-c3ccn[nH]3)c2n1 (stereo not given) + COc1cc2nc(C)nc(NC(C)c3cc(N)cc(C(F)(F)F)c3)c2cc1OC1CCOC1 | 7.59 | 7.51 | 7.84 | > 8.00 | > 8.00 | 49.5 | 39.9 | 33.9 | 26.8 | 20.3 | 49.5 | 36.8 | 27.2 | 21.9 | 23.6 | 42.7 | 32.9 | 27.9 | 22.5 | 18.6 | viability, T/C (second compound 0.1 µM, first compound 0.01 µM): 56%; viability, T/C (second compound 0.316 µM, first compound 0.01 µM): 58.2%; viability, T/C (second compound 1 µM, first compound 0.01 µM): 53.6%; viability, T/C (second compound 3.16 µM, first compound 0.01 µM): 36.3%; viability, T/C [16]: 32%; viability, T/C [17]: 25.4%; viability, T/C [18]: 18.2%; viability, T/C [19]: 8.31%; viability, T/C [20]: 15.9%; viability, T/C (second compound 10 µM, first compound 0.01 µM): 17.4%; viability, T/C [21]: 21.6%; viability, T/C [22]: 21.9%; viability, T/C [23]: 11.4%; viability, T/C [24]: 9.32%; viability, T/C [25]: 6.09%
2 | CC1OCC2(CCN(c3cnc(Sc4ccnc(N)c4Cl)c(N)n3)CC2)C1N (stereo not given) + COc1cc2nc(C)nc(NC(C)c3cc(N)cc(C(F)(F)F)c3)c2cc1OC1CCOC1 | > 7.50 | > 7.50 | > 7.50 | > 7.50 | > 7.50 | 49.4 | 43.1 | 38.4 | 36.1 | 39 | 47.2 | 41.4 | 34.1 | 35.7 | 37 | 48 | 43.8 | 35 | 36.2 | 32.3 | viability, T/C (second compound 0.1 µM, first compound 10 µM): 34.5%; viability, T/C (second compound 0.316 µM, first compound 10 µM): 39.7%; viability, T/C (second compound 1 µM, first compound 10 µM): 29.9%; viability, T/C [16]: 43.6%; viability, T/C [17]: 39%; viability, T/C [18]: 35.3%; viability, T/C [19]: 33.4%; viability, T/C [20]: 29.5%; viability, T/C (second compound 3.16 µM, first compound 10 µM): 26.6%; viability, T/C [21]: 30%; viability, T/C [22]: 21.2%; viability, T/C [23]: 13.1%; viability, T/C [24]: 13.3%; viability, T/C [25]: 11.6%; viability, T/C (second compound 10 µM, first compound 10 µM): 5.88%
